We go through 3 molecules from US7589239B2, “Therapeutic agents for the treatment of cancer, metabolic diseases and skin disorders” (Auspex Pharmaceuticals, priority 2005, dated 2009).

The experiment addresses T1, human RAR-β (Homo sapiens, UniProt P10826).
T1 sequence (P10826 1-455): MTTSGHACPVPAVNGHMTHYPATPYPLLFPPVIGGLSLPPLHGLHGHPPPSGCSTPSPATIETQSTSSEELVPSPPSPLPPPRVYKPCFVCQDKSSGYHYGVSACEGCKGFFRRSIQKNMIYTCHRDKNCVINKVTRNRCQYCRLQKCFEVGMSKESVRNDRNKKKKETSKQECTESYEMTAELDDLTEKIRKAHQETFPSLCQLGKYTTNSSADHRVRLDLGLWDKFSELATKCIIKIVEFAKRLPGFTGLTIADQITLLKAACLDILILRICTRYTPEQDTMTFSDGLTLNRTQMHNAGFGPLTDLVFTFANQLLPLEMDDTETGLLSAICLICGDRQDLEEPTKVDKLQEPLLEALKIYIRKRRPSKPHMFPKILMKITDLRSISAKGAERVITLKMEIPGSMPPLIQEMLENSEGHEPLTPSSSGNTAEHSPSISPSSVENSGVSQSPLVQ
Description: Co-transfection assay (luciferase reporter induction in transfected COS-7 cells).

The term fold induction denotes the signal under treatment as a multiple of the control signal. A higher fold induction goes with a strong induction.

Description: The following assay is a measure of the in-vitro binding affinity of the given compound with human RAR-β in COS-7 cells. Binding of the compound to RAR-β will induce transcription of luciferase within the cells. This level of transcription can be quantified based on the amount of luminescence emitted after incubation of the cell lysate with luciferin.
COS-7 cells were cultured in Dulbecco Modified Eagle's Medium (DMEM) with 4 mM L-glutamine, 4.5 g/L glucose 1.5 g/L sodium bicarbonate and supplemented with 10% fetal bovine serum. Cells were transfected using the calcium phosphate:DNA co-precipitation method. A 10-cm plate of cells was transfected with 5 μg of luciferase reporter construct, 5 μg of expression vector for β-galactosidase, 1 μg of expression vector for RAR-β, and pUC19 as carrier, to a total of 20 μg.
β-galactosidase (5 μg) was included in each transfection to monitor transfection efficiency. Cells were incubated 6 hours at 37° C. in a CO2 incubator. The cells were re-suspended in fresh media containing 10% serum (96-well plate, 15000 cells per well) with or without compound (in 0.5% DMSO) and the plates were incubated at 37° C. in a CO2 incubator. Lysis buffer (1×) was added to cover the cells and the plates were incubated at ambient temperature for 15 min. Luciferase and β-galactosidase assays were performed 36 hours post-transfection, and the normalized luciferase response was determined as relative light units divided by β-galactosidase activity. Composition of 5× lysis buffer is 125 mM. Tris (pH 7.8) with H3PO4 10 mM trans-1,2 diaminocyclohexane-N,N,N′,N′-tetraaceticacid (CDTA), 10 mM dithiothereitol (DTT), 50% glycerol, 5% triton X-100.

Regarding `COc1ccc(-c2ccc3cc(B4OC(C)(C)C(C)(C)O4)ccc3c2)cc1C12CC3CC(CC(C3)C1)C2` [Example 9, 2-[6-(3-(1-Adamandyl)-4-methoxyphenyl)-naphthalen-2-yl]-4,4,5,5-tetramethyl[1,3,2]dioxaborolane], the fold induction at 3 µM is 2 and the fold induction at 40 µM amounted to 6.
The molecule `CC1=C(/C=C/C(C)=C/C=C/C(C)=C/C(=O)O)C(C)(C)CCC1` [ATRA, all-trans-retinoic acid, reference compound] yielded a fold induction at 0.001 µM of 9.3, a fold induction at 0.03 µM of 13.7 and a fold induction at 0.1 µM of 19.1.
Molecule `COc1ccc(-c2ccc3cc(B(O)O)ccc3c2)cc1C12CC3CC(CC(C3)C1)C2` [Example 10, 6-[-3-(1-Adamandyl)-4-methoxyphenyl)-2-naphthoboronic acid] displayed a fold induction at 3 µM of 2.1 and a fold induction at 10 µM of 3.6.
